From US8580732B2, “Peptide therapy for hyperglycemia” (Duke University, priority 2009, dated 2013)

Assays:
Assay type in all cases: cell-based
isolated rat islets = experiment: Etoposide-induced apoptosis, Annexin V staining by flow cytometry, isolated rat islets; details: 72 hr
Experimental: Pools of 50 islets were treated with DMSO, etoposide (0.2 mM) or camptothecin (10 μM) for 72 hrs as indicated. Islets were co-incubated with peptide (50 nM TLQP-21, 50 nM exendin-4), H89 (concentration), and/or LY294002 (concentration) where indicated. Islets were dispersed using 0.05% trypsin/EDTA (Sigma) diluted 1:1 with cell dissociation buffer (Sigma) for 5-10 min at 37 C following gentle pipetting. Islets were recovered by centrifugation and stained with FITC-conjugated Annexin V and propidium iodide (Roche) according to the manufacturer's specifications. Data were collected using a FACScan analyzer and analyzed using WinMDI 2.9 software.

primary rat islets [1] = experiment: Glucose-stimulated insulin secretion (GSIS), static incubation, primary rat islets; details: 16.7 mM Glc
Experimental: (§1) 832/3 and 832/13 cells derived from the parental INS-1 cell line were cultured as previously described (REF-Hohmeier/Wolheim). Pancreatic islets were isolated from male Sprague-Dawley rats according to standard procedures (See, e.g., Ronnebaum et al., (2006) J. Biol. Chem. 281: 30593-30602). For cell culture experiments, TLQP-21 was purchased from Phoenix Pharmaceuticals. For animal studies, TLQP-21 was synthesized by GenScript Corporation. AQEE-30 was a kind gift of Dr. Yun-Ping (Merck Research Laboratories).
Human VGF cDNA was purchased from Open Biosystems and subcloned into pAC.CMV using PCR engineered restriction sites. Recombinant adenovirus was generated as previously described (REF). Adenoviruses expressing Nkx6.1, Pdx-1, GFP, beta-galactosidase have been described elsewhere (REF). […]
Islets: 3 groups of 20 islets were washed with phosphate-buffered saline (PBS) and incubated in secretion assay buffer (SAB; 114 mM NaCl, 4.7 mM KCl, 1.2 mM […], 1.16 mM MgSO4, 25 mM HEPES pH 7.2, 2.5 mM CaCl2, 0.2% bovine serum albumin (Gibco), 25.5 mM NaHCO3) containing 2.5 mM Glc for 1 hr at 37° C. […] Islets were lysed in RIPA buffer containing 5 mM EDTA and total protein determined by BCA (Pierce). Insulin was measured from SAB using the Coat-a-Count kit (Siemens). Insulin content was determined from a 1:100 dilution of total protein.

832/3 cells = experiment: Glucose-stimulated insulin secretion (GSIS), static incubation, 832/3 cells; details: 12 mM Glc, concentrations that augment insulin release in rat islets
Experimental: as §1
832/3 cells were plated in triplicate per condition in 12-well dishes and assayed at confluence. Cells were washed in SAB buffer and pre-incubated for 1.5 hr in SAB containing 2.5 mM Glc. Insulin was collected by static incubation in SAB containing 2.5 mM Glc for 2 hrs at 37° C. (basal) followed by incubation in SAB containing 12 mM Glc for 2 hrs (stimulatory). Secretagogues (20 nM exendin-4, TLQP-21, AQEE-30) were added where indicated. Cells were washed in PBS, collected by centrifugation, and lysed in 50 uL RIPA containing 5 mM EDTA. Total protein was determined by BCA (Pierce). Insulin was measured from SAB using the Coat-a-Count kit (Siemens). Insulin content was determined from a 1:500 dilution of total protein.

primary rat islets [2] = experiment: cAMP level determination in primary rat islets; details: 16.7 mM Glc, 30 min, TLQP-21 50 nM, exendin-4 20 nM, relative to untreated control
Experimental: Primary rat islets and 832/3 cells were prepared as stated for insulin secretion measurements except the incubation at stimulatory glucose was for 30 min in the presence of 0.1 mM isobuytlmethylxanthine (IBMX). Rat islets were rapidly transferred to 0.2 mL of ice-cold 80% ethanol and stored at −80° C. until assayed. Samples were evaporated to dryness and assayed using the cAMP EIA kit from Biomedical Technologies, Inc. using acetylation protocol. For 832/3 cells, the secretion buffer was removed and rapidly replaced with 0.5 mL of 80% ethanol. Cells were stored at −80° C. until assayed. 0.2 mL of sample was evaporated to dryness and assayed for cAMP using the non-acetylation protocol.

Compound: COc1cc([C@@H]2c3cc4c(cc3[C@@H](O[C@@H]3O[C@@H]5CO[C@@H](C)O[C@H]5[C@H](O)[C@H]3O)[C@H]3COC(=O)[C@H]23)OCO4)cc(OC)c1O [etoposide]
- increase in Annexin V positive cells over untreated (DMSO) control (isolated rat islets; etoposide 0.2 mM alone): 18%
- islet cells staining positive for Annexin V (isolated rat islets; etoposide 0.2 mM alone): 35%

Compound: AQEE-30: second C-terminal VGF peptide; SEQ ID NO:14 is rat AQEE-30 polypeptide (AQARRAQEEADAEERRLQEQEELENYIEHVLLHRP; listed as Rattus norvegicus)
- ability to potentiate GSIS (primary rat islets [1]): unable to augment GSIS
- ability to potentiate GSIS (832/3 cells): unable to augment GSIS

Compound: exendin-4
- enhancement of GSIS (primary rat islets [1]; 20 nM): 1.8 fold
- increase in cAMP levels (primary rat islets [2]): ~3 fold
- protection against etoposide-mediated apoptosis (isolated rat islets; co-culture with etoposide 0.2 mM): comparable level of protection
